Here are results for 16 compounds from ChEMBL document CHEMBL6109107, “Exploring the broad-spectrum activity of carbohydrate-based Iberin analogues: From anticancer effect to antioxidant properties” (Eur J Med Chem, 2025).

Data set [1] can be described thus: Selectivity index, ratio of IC50 for human HaCaT cells to IC50 for human MeWo cells. The conditions noted are these: HaCaT cells versus MeWo cells, read-out: Ratio IC50. In kind it is toxicity.
Data set [2] is described as follows: Selectivity index, ratio of IC50 for human HaCaT cells to IC50 for human A549 cells. In kind it is toxicity. The conditions noted are these: HaCaT cells versus A549 cells, read-out: Ratio IC50.
Data set [3] can be described thus: Selectivity index, ratio of IC50 for human HaCaT cells to IC50 for human T24 cells. Type of data set: toxicity. The note with it: HaCaT cells versus T24 cells, read-out: Ratio IC50.
The subject of data set [4] is A549. Put plainly: Cytotoxicity against human A549 cells assessed as reduction in cell viability incubated for 72 hrs by resazurin dye based assay. In kind it is functional. The note with it: A549, 72 h. (Alamar Blue is a resazurin reagent that responds to reducing activity.)
In the next data set the test system is MeWo. Put plainly: Cytotoxicity against human MeWo cells assessed as reduction in cell viability incubated for 72 hrs by resazurin dye based assay. In kind it is functional.
A short description of data set [5]: Cytotoxicity against human HaCaT cells assessed as reduction in cell viability incubated for 72 hrs by resazurin dye based assay. In kind it is toxicity.
Data set [6] in a line: Cytotoxicity against human Arec32 cells assessed as cell viability by MTT assay. Type of data set: toxicity, cell-based.
The test system of data set [7] is Arec32. Put plainly: Induction of Nrf2 activity in human Arec32 cells assessed as drug concentration required to double luciferase expression incubated for 24 hrs by luminescence based plate reader analysis. Type of data set: cell-based. The conditions noted are these: filed as activator.
The subject of a further data set is T-24. Put plainly: Cytotoxicity against human T24 cells assessed as reduction in cell viability incubated for 72 hrs by resazurin dye based assay. In kind it is functional. The conditions noted are these: T-24, 72 h.
The test system of data set [8] is Arec32. Nature of the data set: Induction of Nrf2 activity in human Arec32 cells assessed as increase in luciferase expression at >30 uM incubated for 24 hrs by luminescence based plate reader analysis. In kind it is cell-based.
Data set [9] deals with A549. Put plainly: Cytotoxicity against human A549 cells assessed as inhibition of cell growth incubated for 72 hrs by MTT assay. Type of data set: functional, cell-based. The conditions noted are these: A549, 72 h. (In general: Formazan colour is commonly taken as a measure of viable cells.)

Active and inactive are the calls of the source. No cut-off for these calls is given here.

Regarding `CC(=O)OC[C@H]1O[C@@H](N=C=S)[C@H](OC(C)=O)[C@@H]([S@@+]([O-])c2ccccc2)[C@@H]1OC(C)=O`, the selectivity ratio in data set [1] was 0.9; in [2], 0.8; in data set [3], 1.1. For the same compound, the IC50 was found to be 74.9 µM in the data set on A549 [4], 67.5 µM in the data set on MeWo and 56.7 µM with T-24. The half-inhibitory concentration (IC50) at 72 h in data set [5] is 59.1 µM. Further, in data set [6], the concentration giving a half-maximal response (EC50) is more than 30 µM. The CD in the data set on Arec32 [7] amounted to 1.55 µM.
Take `CC[S+]([O-])[C@@H]1[C@@H](OC(C)=O)[C@H](N=C=S)O[C@H](COC(C)=O)[C@H]1OC(C)=O` (mixture of isomers): the selectivity ratio in data set [1] stood at 1.1; in data set [2], 0.9; in data set [3], 1.1. The IC50 came out at 155 µM in the data set with A549 [4], 118 µM in the data set on MeWo and 113 µM with T-24. Moreover, the IC50 at 72 h in [5] came out at 141 µM. Moreover, the EC50 in data set [6] was more than 30 µM. Moreover, in the data set on Arec32 [7], the CD came out at 6.32 µM.
Regarding `CC(=O)OC[C@H]1O[C@@H](N=C=S)[C@H](OC(C)=O)[C@@H]([S+](C)[O-])[C@@H]1OC(C)=O` (mixture of isomers), the selectivity ratio in data set [1] is 1; in [2] it was 1; in [3], 1.1. The IC50 with A549 [4] turned out to be 183 µM; with MeWo, 178 µM; with T-24, 159 µM. For the same compound, the 50% inhibitory concentration (IC50) at 72 h in data set [5] was 180 µM. For the same compound, the half-maximal effective concentration (EC50) in data set [6] was more than 30 µM. In addition, the CD in the data set on Arec32 [7] is 5.75 µM.
Take `CC(=O)OC[C@H]1O[C@@H](N=C=S)[C@H](OC(C)=O)[C@@H](S(=O)(=O)c2ccccc2)[C@@H]1OC(C)=O`: the selectivity ratio in data set [1] came to 1.2; in data set [2] it was 0.7; in data set [3], 1.6. Also, the IC50 was found to be 40.3 µM in the data set on A549 [4], 22.9 µM in the data set on MeWo and 16.8 µM in the data set on T-24. Moreover, the IC50 at 72 h in data set [5] worked out at 27.5 µM. Moreover, the half-maximal effective concentration (EC50) in data set [6] is more than 30 µM. In addition, in the data set with Arec32 [7], the CD was determined as 2.09 µM.
Turning to `CCS[C@@H]1[C@@H](OC(C)=O)[C@H](N=C=S)O[C@H](COC(C)=O)[C@H]1OC(C)=O`, the values for the selectivity ratio in [1], in data set [2] and in data set [3] were 0.9, 0.9 and 1.5, respectively. In addition, the 50% inhibitory concentration (IC50) stood at 48.8 µM in the data set on A549 [4], 50 µM in the data set on MeWo and 31.5 µM with T-24. Further, in [5], the concentration for half-maximal inhibition (IC50) at 72 h stood at 46.3 µM. Also, the EC50 in data set [6] was more than 30 µM. Moreover, in the data set on Arec32 [8], the outcome was inactive.
On to `Nc1ccn([C@@H]2O[C@H](CO)[C@@H](O)C2(F)F)c(=O)n1` [GEMCITABINE], for which the selectivity ratio is 1.6 in data set [1], 2.6 in [2] and 4.2 in data set [3]. In addition, the IC50 with A549 [4] is 3 µM; in the data set on MeWo it was 5.2 µM; in the data set with T-24 it was 2.1 µM. Also, the IC50 at 72 h in data set [5] came to 7.1 µM.
Take `CCS(=O)(=O)[C@@H]1[C@@H](OC(C)=O)[C@H](N=C=S)O[C@H](COC(C)=O)[C@H]1OC(C)=O`: the selectivity ratio in [1] was determined as 1.1; in [2] it was 0.6; in [3], 2. In addition, the half-maximal inhibitory concentration (IC50) worked out at 54.7 µM in the data set on A549 [4], 33 µM in the data set on MeWo and 18 µM in the data set with T-24. Moreover, in [5], the IC50 at 72 h turned out to be 35.2 µM. Further, in data set [6], the concentration for a half-maximal effect (EC50) was more than 30 µM. In the data set on Arec32 [7], the CD was 10.4 µM.
In the case of `CS(=O)(=O)CCCN=C=S`, the selectivity ratio in data set [1] is 1.3; in [2], 1.9; in data set [3], 3.3. Also, the IC50 came out at 25.2 µM in the data set with A549 [4], 29.5 µM with MeWo and 10.7 µM in the data set on T-24. Also, the IC50 at 72 h in [5] was 35.9 µM. In addition, the concentration for a half-maximal effect (EC50) in data set [6] is more than 30 µM. The CD with Arec32 [7] is 3.22 µM.
Take `CS[C@@H]1[C@@H](OC(C)=O)[C@H](N=C=S)O[C@H](COC(C)=O)[C@H]1OC(C)=O`: the selectivity ratio was 1 in data set [1], 0.9 in [2] and 1.5 in [3]. For the same compound, the IC50 worked out at 47.9 µM in the data set on A549 [4], 47 µM in the data set with MeWo and 30.9 µM with T-24. Further, the IC50 at 72 h in data set [5] turned out to be 45.3 µM. Further, the EC50 in data set [6] was more than 30 µM. In addition, in the data set on Arec32 [8], the result was inactive.
With `CC(=O)OC[C@H]1O[C@@H](N=C=S)[C@H](OC(C)=O)[C@@H](S(C)(=O)=O)[C@@H]1OC(C)=O`, the selectivity ratio in data set [1] was determined as 1.2; in [2], 0.6; in [3] it was 2. The values for the IC50 with A549 [4], in the data set with MeWo and with T-24 were 62.8 µM, 39 µM and 19.9 µM, respectively. In addition, in data set [5], the IC50 at 72 h stood at 40.1 µM. Moreover, the EC50 in [6] was more than 30 µM. The CD with Arec32 [7] worked out at 6.21 µM.
For the compound `CC(=O)OC[C@H]1O[C@@H](N=C=S)[C@H](OC(C)=O)[C@@H]([S@+]([O-])c2ccccc2)[C@@H]1OC(C)=O`, the values for the selectivity ratio in data set [1], in data set [2] and in data set [3] were 1.1, 1 and 1.3, respectively. Further, the IC50 with A549 [4] stood at 58.9 µM; in the data set with MeWo, 57.4 µM; in the data set on T-24, 48.9 µM. In addition, the half-maximal inhibitory concentration (IC50) at 72 h in [5] came out at 61.2 µM. Further, in [6], the concentration for a half-maximal effect (EC50) was more than 30 µM. Moreover, the CD with Arec32 [7] came out at 2.09 µM.
Regarding `C[S+]([O-])CCCN=C=S` (racemic), the values for the selectivity ratio in data set [1], in data set [2] and in [3] were 1, 1.8 and 2.9, respectively. Also, the IC50 with A549 [9] turned out to be 30.2 µM; in the data set with A549 [4], 20.7 µM; with MeWo, 32.8 µM; in the data set on T-24 it was 12.2 µM. Besides, in data set [5], the IC50 at 72 h is 33 µM. Further, the concentration for a half-maximal effect (EC50) in [6] was more than 30 µM. In addition, the CD in the data set with Arec32 [7] turned out to be 3.12 µM.
As for `CSCCCN=C=S`, the selectivity ratio in data set [1] came out at 1.5; in data set [2], 1.7; in data set [3], 3.2. Moreover, the IC50 turned out to be 48 µM with A549 [9], 31.1 µM in the data set on A549 [4], 31.6 µM with MeWo and 14.4 µM in the data set with T-24. In data set [5], the IC50 at 72 h came out at 43.9 µM. Also, the EC50 in data set [6] was more than 30 µM. For the same compound, in the data set on Arec32 [7], the CD worked out at 2.94 µM.
For `CC(=O)OC[C@H]1O[C@@H](N=C=S)[C@H](OC(C)=O)[C@@H](OC(C)=O)[C@@H]1OC(C)=O`, the selectivity ratio in data set [1] is 1.2; in data set [2], 1.1; in data set [3], 1.5. Moreover, the IC50 was determined as 64.6 µM in the data set with A549 [4], 58.1 µM in the data set on MeWo and 48.7 µM with T-24. Also, in data set [5], the half-inhibitory concentration (IC50) at 72 h was 71.4 µM. In addition, the concentration for a half-maximal effect (EC50) in data set [6] was more than 30 µM. Moreover, the outcome in the data set with Arec32 [8] was inactive.
Consider `CC(C)(C)c1cc(O)ccc1O` [E319], for which the concentration giving a half-maximal response (EC50) in data set [6] is more than 30 µM. Further, in the data set on Arec32 [7], the CD amounted to 1.68 µM.
For `CC(=O)OC[C@H]1O[C@@H](N=C=S)[C@H](OC(C)=O)[C@@H](Sc2ccccc2)[C@@H]1OC(C)=O`, the selectivity ratio in data set [1] is 0.9; in data set [2] it was 1; in data set [3], 1.2. The IC50 stood at 24.9 µM in the data set with A549 [4], 29.1 µM in the data set on MeWo and 19.4 µM in the data set with T-24. The IC50 at 72 h in data set [5] turned out to be 23.2 µM. In addition, the concentration for a half-maximal effect (EC50) in [6] was more than 30 µM. Also, the outcome with Arec32 [8] was inactive.

The term IC50 denotes the concentration that inhibits the measured activity by half. One may read the EC50 as the concentration giving half of the maximal effect.
